# Assay results published in patent US20140275237A1, “BERAPROST ISOMER AS AN AGENT FOR THE TREATMENT OF VIRAL INFECTION” (priority 2013, published 2014).
# Like-named read-outs stand apart in the source and are kept apart here.
# Key:
# [1] = system: human PBMCs activated with Poly r(I:C); assay: cells; format: cell-based; details: for EC50: read-out: EC50 for reduction of cytokine release (TNFalpha production) from human PBMCs
# [2] = system: Influenza A/Duck/MN/1525/81 (H5N1); parameters: species or system mice; details: mouse, in vivo
# [3] = system: Influenza A/Duck/MN/1525/81 (H5N1); parameters: species or system mice; details: mouse, in vivo; remark: listed apart in the source
# [4] = system: Influenza A/Duck/MN/1525/81 (H5N1); parameters: species or system mice; details: mouse, in vivo; remark: listed apart in the source
# [5] = system: Influenza A/Duck/MN/1525/81 (H5N1); parameters: species or system mice; details: mouse, in vivo; remark: listed apart in the source
# [6] = system: Influenza A/Duck/MN/1525/81 (H5N1); parameters: species or system mice; details: mouse, in vivo; remark: listed apart in the source
Structure (SMILES),"EC50 ([1]; Homo sapiens, PBMC, 18 h)",MDD (mean day of death) [2],Survival [2],Average % loss (animal weight loss as percent of initial weight) [3],"Lung score, Mean [4]","Lung weight, Mean [4]",Mean number of cells (lung) [5],"Lung cytokine concentration, CCL2 Average [6]","Lung cytokine concentration, IFNg Average [6]","Lung cytokine concentration, IL-6 Average [6]","Lung cytokine concentration, IL-10 Average [6]","Lung cytokine concentration, IL-12 Ave [6]",EC50 [1],EC50 for reduction of cytokine release (TNFalpha production) from human PBMCs [1]
"CC#CCC(C)C(O)C=CC1C(O)CC2Oc3c(CCCC(=O)[O-])cccc3C21.[Na+] (centres unmarked) [Beraprost, 2,3,3a,8b-tetrahydro-2-hydroxyl-1-(3-hydroxyl-4-methyl-1-octen-6-ynyl)-1H-cyclopenta[b]benzofuran-5-butanoic acid, sodium salt]",11 nM,11.5,3/10,76%,2.0,0.24 grams,2.63,1308 pg/mL,1601 pg/mL,604 pg/mL,621 pg/mL,3517 pg/mL,,
"CC#CC[C@H](C)[C@H](O)/C=C/[C@@H]1[C@H]2c3cccc(CCCC(=O)[O-])c3O[C@H]2C[C@H]1O.[Na+] (single isomer, unassigned; isomer a) [Isomer A]",,13,4/10,76%,2.00,0.22 grams,1.15,953 pg/mL,1046 pg/mL,521 pg/mL,223 pg/mL,3800 pg/mL,4 nM,
"CC#CCC(C)C(O)C=CC1C(O)CC2Oc3c(CCCC(=O)O)cccc3C21 (single isomer, unassigned; isomer d) [Isomer D]",,7,0/10,68%,3.50,0.37 grams,,2347 pg/mL,2074 pg/mL,1291 pg/mL,758 pg/mL,2603 pg/mL,,No
